Data reported in ChEMBL document CHEMBL1143627, “Enantiomerically pure hexahydropyrazinoquinolines as potent and selective dopamine 3 subtype receptor ligands” (J Med Chem, 2005).
pKi: −log10 of the molar value.

Tests used:
D(2) dopamine receptor = D(2) dopamine receptor (Rattus norvegicus, UniProt P61169); assay: Inhibition of [3H]spiperone binding to Dopamine receptor D2-like in rat caudate-putamen membrane; format: cell membranes
D(3) dopamine receptor = D(3) dopamine receptor (Rattus norvegicus, UniProt P19020); assay: biochemical
Chain of D(3) dopamine receptor (P19020 whole entry): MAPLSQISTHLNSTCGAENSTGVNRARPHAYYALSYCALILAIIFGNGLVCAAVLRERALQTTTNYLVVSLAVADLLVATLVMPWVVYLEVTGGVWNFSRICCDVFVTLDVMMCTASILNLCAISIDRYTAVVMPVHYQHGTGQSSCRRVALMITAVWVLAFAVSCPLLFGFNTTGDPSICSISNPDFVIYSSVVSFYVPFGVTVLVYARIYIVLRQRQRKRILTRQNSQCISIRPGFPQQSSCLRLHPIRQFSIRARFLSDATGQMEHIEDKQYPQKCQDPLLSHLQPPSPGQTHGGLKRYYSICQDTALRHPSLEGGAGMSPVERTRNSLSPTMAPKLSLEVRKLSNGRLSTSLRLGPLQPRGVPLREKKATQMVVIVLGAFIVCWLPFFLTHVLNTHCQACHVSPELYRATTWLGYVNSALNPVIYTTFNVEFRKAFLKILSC
Description: Inhibition of [3H]-PD 128907 binding to Dopamine receptor D3 in rat ventral striatum

Chain of D(2) dopamine receptor (P61169 whole entry): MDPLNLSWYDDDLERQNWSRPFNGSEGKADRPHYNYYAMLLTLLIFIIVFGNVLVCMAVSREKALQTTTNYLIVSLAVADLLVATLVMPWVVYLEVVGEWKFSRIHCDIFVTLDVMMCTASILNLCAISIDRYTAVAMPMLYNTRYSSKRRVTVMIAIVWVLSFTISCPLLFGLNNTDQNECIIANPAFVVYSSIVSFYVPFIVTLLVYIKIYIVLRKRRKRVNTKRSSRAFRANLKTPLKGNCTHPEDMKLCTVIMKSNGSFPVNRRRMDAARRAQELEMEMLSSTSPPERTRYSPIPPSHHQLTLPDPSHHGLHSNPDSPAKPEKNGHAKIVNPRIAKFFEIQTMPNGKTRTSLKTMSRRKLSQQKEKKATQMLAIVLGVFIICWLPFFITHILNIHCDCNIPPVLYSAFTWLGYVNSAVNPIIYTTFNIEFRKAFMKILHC

Row | SMILES | pKi (D(2) dopamine receptor) | pKi (D(3) dopamine receptor)
1 | O=C(NCCCCN1CCN2c3ccccc3CCC2C1)c1ccc2ccccc2c1 (stereo not drawn) | 5.80 | 
2 | COc1ccc2c(c1)CC[C@@H]1CN(CCN3CCC(NC(=O)c4ccc5ccccc5c4)CC3)CCN21 | < 4.30 | 5.33
3 | COc1ccc2c(c1)CC[C@H]1CN(CCC3CCC(NC(=O)c4ccc5ccccc5c4)CC3)CCN21 (stereo partly drawn) | < 5.00 | 8.00
4 | COc1ccc2c(c1)CC[C@@H]1CN(CCCCNC(=O)c3ccc4ccccc4c3)CCN21 | < 4.00 | 7.17
5 | COc1ccc2c(c1)N1CCN(CCCCNC(=O)c3ccc4ccccc4c3)C[C@@H]1CC2 | 6.00 | 7.02
6 | COc1ccc2c(c1)CC[C@H]1CN(CCCCNC(=O)c3ccc4ccccc4c3)CCN21 | < 4.30 | 6.90
7 | COc1ccc2c(c1)CC[C@H]1CN(CCN3CCC(NC(=O)c4ccc5ccccc5c4)CC3)CCN21 | < 4.60 | 5.15
8 | COc1ccc2c(c1)N1CCN(CCCCNC(=O)c3ccc4ccccc4c3)C[C@H]1CC2 | 5.76 | 7.36
9 | COc1ccc2c(c1)CC[C@@H]1CN(CC[C@H]3CC[C@H](NC(=O)c4ccc5ccccc5c4)CC3)CCN21 | < 5.00 | 8.24

The next compounds have a higher pKi (D(2) dopamine receptor) than those just listed; values first:

Row | pKi (D(2) dopamine receptor) | pKi (D(3) dopamine receptor) | SMILES
10 | 6.23 | 7.72 | O=C(NCCCCN1CCN2c3ccccc3CC[C@@H]2C1)c1ccc2ccccc2c1
11 | 6.51 |  | COc1cccc2c1N1CCN(CCCCNC(=O)c3ccc4ccccc4c3)C[C@H]1CC2
12 | 6.61 |  | O=C(CCCN1CCN2c3ccccc3CCC2C1)c1ccc(F)cc1 (stereo not drawn)
13 | 6.18 | 8.03 | COc1cccc2c1CC[C@H]1CN(CCCCNC(=O)c3ccc4ccccc4c3)CCN21
14 | 7.06 |  | COc1cccc2c1N1CCN(CCCCNC(=O)c3ccc4ccccc4c3)C[C@@H]1CC2
15 | 6.74 | 7.80 | O=C(NCCCCN1CCN2c3ccccc3CC[C@H]2C1)c1ccc2ccccc2c1
16 | 6.19 | 8.08 | COc1cccc2c1CC[C@@H]1CN(CCCCNC(=O)c3ccc4ccccc4c3)CCN21
